Measured values published in patent US9695155B2, “Herbicidal substituted pyrimidinyloxy benzene compounds” (E. I. DU PONT DE NEMOURS AND COMPANY, priority 2013, dated 2017).

Tests used:
[1] = system: lambsquarters; assay: Test E preemergence; assay type: in vivo, Chenopodium album; settings: for Lambsquarters plant response rating: scale 0 to 100 (0 no effect, 100 complete control)
Source text: (§1) Seeds of plant species selected from corn (Zea mays), soybean (Glycine max), velvetleaf (Abutilon theophrasti), lambsquarters (Chenopodium album), wild poinsettia (Euphorbia heterophylla), palmer pigweed (Amaranthus palmeri), waterhemp (common waterhemp, Amaranthus rudis), surinam grass (Brachiaria decumbens), large (Lg) crabgrass (Digitaria sanguinalis), Brazilian crabgrass (Digitaria horizontalis), fall panicum (Panicum dichotomiflorum), giant foxtail (Setaria faberii), green foxtail (Setaria viridis), goosegrass (Eleusine indica), johnsongrass (Sorghum halepense), ragweed (common ragweed, Ambrosia elatior), barnyardgrass (Echinochloa crus-galli), sandbur (southern sandbur, Cenchrus echinatus), arrowleaf sida (Sida rhombifolia), Italian ryegrass (Lolium multiflorum), dayflower (Virginia (VA) dayflower, Commelina virginica), field bindweed (Convolvulus arvensis), morningglory (Ipomoea coccinea), nightshade (eastern black nightshade, Solanum ptycanthum), kochia (Kochia scoparia), yellow nutsedge (Cyperus esculentus), cocklebur (common cocklebur, Xanthium strumarium), smartweed (ladysthumb smartweed, and hairy beggarticks (Bidens pilosa), were planted into a silt loam soil and treated preemergence with test chemicals formulated in a non-phytotoxic solvent mixture which included a surfactant.
(§2) At the same time, plants from these crop and weed species and also horseweed (Canada horseweed, Conyza canadensis), waterhemp_RES1, (ALS & Triazine resistant common waterhemp, Amaranthus rudis), and waterhemp_RES2, (ALS & HPPD resistant common waterhemp, Amaranthus rudis) were planted in pots containing Redi-Earth® planting medium (Scotts Company, 14111 Scottslawn Road, Marysville, Ohio 43041) comprising spaghnum peat moss, vermiculite, wetting agent and starter nutrients were treated with postemergence applications of test chemicals formulated in the same manner. Plants ranged in height from 2 to 18 cm for postemergence treatments (1- to 4-leaf stage). Treated plants and controls were maintained in a greenhouse for 14 to 21 days, after which time all species were compared to controls and visually evaluated. Plant response ratings, summarized in Table E, are based on a scale of 0 to 100 where 0 is no effect and 100 is complete control. A dash (-) response means no test result.

[2] = system: waterhemp; assay: Test E preemergence; assay type: in vivo, Amaranthus rudis; settings: for Waterhemp plant response rating: scale 0 to 100 (0 no effect, 100 complete control)
Source text: as §1, §2

[3] = system: large (Lg) crabgrass; assay: Test E preemergence; assay type: in vivo, Digitaria sanguinalis; settings: for Crabgrass, Large plant response rating: scale 0 to 100 (0 no effect, 100 complete control)
Source text: as §1, §2

[4] = system: Brazilian crabgrass; assay: Test E preemergence; assay type: in vivo, Digitaria horizontalis; settings: for Crabgrass, Brazil plant response rating: scale 0 to 100 (0 no effect, 100 complete control)
Source text: as §1, §2

[5] = system: ragweed; assay: Test E preemergence; assay type: in vivo, Ambrosia elatior; settings: for Ragweed plant response rating: scale 0 to 100 (0 no effect, 100 complete control)
Source text: as §1, §2

[6] = system: barnyardgrass; assay: Test E preemergence; assay type: in vivo, Echinochloa crus-galli; settings: for Barnyardgrass plant response rating: scale 0 to 100 (0 no effect, 100 complete control); for Plant response rating, Barnyardgrass: scale 0 to 100, 0 no effect, 100 complete control
Source text: as §1, §2

[7] = system: sandbur; assay: Test E preemergence; assay type: in vivo, Cenchrus echinatus; settings: for Sandbur plant response rating: scale 0 to 100 (0 no effect, 100 complete control)
Source text: as §1, §2

[8] = system: Italian ryegrass; assay: Test E preemergence; assay type: in vivo, Lolium multiflorum; settings: for Ryegrass, Italian plant response rating: scale 0 to 100 (0 no effect, 100 complete control)
Source text: as §1, §2

[9] = system: nightshade; assay: Test E preemergence; assay type: in vivo, Solanum ptycanthum; settings: for Nightshade plant response rating: scale 0 to 100 (0 no effect, 100 complete control)
Source text: as §1, §2

[10] = system: kochia; assay: Test E preemergence; assay type: in vivo, Kochia scoparia; settings: for Kochia plant response rating: scale 0 to 100 (0 no effect, 100 complete control)
Source text: as §1, §2

[11] = system: barnyardgrass; assay: Test C flooded paddy test; assay type: in vivo, Echinochloa crus-galli; settings: Flood, scale 0 to 100 (0 no effect, 100 complete control), 13 to 15 days
Outline: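 Flooded 3 cm over soil; compound into paddy water; depth kept constant. Greenhouse 13–15 d.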

[12] = system: waterhemp_RES2 (ALS & HPPD resistant common waterhemp); assay: Test E postemergence; assay type: in vivo, Amaranthus rudis; settings: Amaranthus tuberculatus, post-emergence, read-out: Plant response rating, Waterhemp_RES2
Source text: as §1, §2

[13] = system: waterhemp; assay: Test E postemergence; assay type: in vivo, Amaranthus rudis; settings: Amaranthus tuberculatus, post-emergence, read-out: Plant response rating, Waterhemp
Source text: as §1, §2

[14] = system: sandbur; assay: Test E postemergence; assay type: in vivo, Cenchrus echinatus; settings: Cenchrus echinatus, post-emergence, read-out: Plant response rating, Sandbur
Source text: as §1, §2

[15] = system: arrowleaf sida; assay: Test E postemergence; assay type: in vivo, Sida rhombifolia; settings: Sida rhombifolia, post-emergence, read-out: Plant response rating, Arrowleaf Sida
Source text: as §1, §2

[16] = system: hairy beggarticks; assay: Test E postemergence; assay type: in vivo, Bidens pilosa; settings: Bidens pilosa, post-emergence, read-out: Plant response rating, Beggarticks
Source text: as §1, §2

[17] = 125 g ai/ha, scale 0 to 100, 0 no effect, 100 complete control
[18] = Postemergence, 31 g ai/ha, scale 0 to 100
[19] = Postemergence, 62 g ai/ha, scale 0 to 100
[20] = Postemergence, 125 g ai/ha, scale 0 to 100
[21] = Postemergence, 250 g ai/ha, scale 0 to 100
[22] = postemergence, 16 g ai/ha, scale 0 to 100, 0 no effect, 100 complete control

Cc1cnc(Oc2cccc(C#N)c2-n2cc(C#N)cn2)nc1 [Compound 90]
Lambsquarters plant response rating ([1]; 16 g ai/ha): 5
Lambsquarters plant response rating ([1]; 31 g ai/ha): 75
Lambsquarters plant response rating ([1]; 62 g ai/ha): 50
Plant response rating, Lambsquarters [1, 17]: 100
Waterhemp plant response rating ([2]; 16 g ai/ha): 0
Waterhemp plant response rating ([2]; 31 g ai/ha): 0
Waterhemp plant response rating ([2]; 62 g ai/ha): 20
Plant response rating, Waterhemp [2, 17]: 100
Crabgrass, Large plant response rating ([3]; 16 g ai/ha): 30
Crabgrass, Large plant response rating ([3]; 31 g ai/ha): 40
Crabgrass, Large plant response rating ([3]; 62 g ai/ha): 75
Plant response rating, Crabgrass, Large [3, 17]: 98
Crabgrass, Brazil plant response rating ([4]; 16 g ai/ha): 0
Crabgrass, Brazil plant response rating ([4]; 31 g ai/ha): 20
Crabgrass, Brazil plant response rating ([4]; 62 g ai/ha): 50
Plant response rating, Crabgrass, Brazil [4, 17]: 80
Ragweed plant response rating ([5]; 16 g ai/ha): 0
Ragweed plant response rating ([5]; 31 g ai/ha): 50
Ragweed plant response rating ([5]; 62 g ai/ha): 50
Plant response rating, Ragweed [5, 17]: 75
Barnyardgrass plant response rating ([6]; 16 g ai/ha, preemergence): 0
Barnyardgrass plant response rating ([6]; 31 g ai/ha, preemergence): 0
Plant response rating, Barnyardgrass ([6]; Preemergence, 62 g ai/ha): 0
Plant response rating, Barnyardgrass ([6]; preemergence, 125 g ai/ha): 40
Sandbur plant response rating ([7]; 16 g ai/ha): 0
Sandbur plant response rating ([7]; 31 g ai/ha): 0
Sandbur plant response rating ([7]; 62 g ai/ha): 0
Plant response rating, Sandbur [7, 17]: 0
Ryegrass, Italian plant response rating ([8]; 16 g ai/ha): 0
Ryegrass, Italian plant response rating ([8]; 31 g ai/ha): 0
Ryegrass, Italian plant response rating ([8]; 62 g ai/ha): 0
Plant response rating, Ryegrass, Italian [8, 17]: 0
Nightshade plant response rating ([9]; 16 g ai/ha): 10
Nightshade plant response rating ([9]; 31 g ai/ha): 10
Nightshade plant response rating ([9]; 62 g ai/ha): 80
Plant response rating, Nightshade [9, 17]: 80
Kochia plant response rating ([10]; 16 g ai/ha): 0
Kochia plant response rating ([10]; 31 g ai/ha): 50
Kochia plant response rating ([10]; 62 g ai/ha): 100
Plant response rating, Kochia [10, 17]: 100

FC(F)c1cnn(-c2ccccc2Oc2ncc(Cl)cn2)c1 [Compound 80, 5-chloro-2-[2-[4-(difluoromethyl)-1H-pyrazol-1-yl]phenoxy]pyrimidine]
Plant response rating, Barnyardgrass ([11]; 250 g ai/ha): 0
Plant response rating, Barnyardgrass ([11]; 500 g ai/ha): 0
Plant response rating, Barnyardgrass ([11]; 1000 g ai/ha): 0
Plant response rating, Barnyardgrass ([11]; 2000 g ai/ha): 0

Clc1cnn(-c2ccccc2Oc2ncc(Br)cn2)c1 [Compound 5, 5-bromo-2-[2-(4-chloro-1H-pyrazol-1-yl)phenoxy]pyrimidine]
pest or weed control at 31 g/ha [12, 18]: 70%
pest or weed control at 62 g/ha [12, 19]: 80%
pest or weed control at 125 g/ha [12, 20]: 90%
pest or weed control at 250 g/ha [12, 21]: 95%
pest or weed control at 16 g/ha [12, 22]: 60%
pest or weed control at 31 g/ha [13, 18]: 80%
pest or weed control at 62 g/ha [13, 19]: 90%
pest or weed control at 125 g/ha [13, 20]: 95%
pest or weed control at 250 g/ha [13, 21]: 98%
pest or weed control at 16 g/ha [13, 22]: 70%
pest or weed control at 31 g/ha [14, 18]: 0%
pest or weed control at 62 g/ha [14, 19]: 0%
pest or weed control at 125 g/ha [14, 20]: 10%
pest or weed control at 250 g/ha [14, 21]: 20%
pest or weed control at 16 g/ha [14, 22]: 0%
pest or weed control at 31 g/ha [15, 18]: 60%
pest or weed control at 62 g/ha [15, 19]: 70%
pest or weed control at 125 g/ha [15, 20]: 80%
pest or weed control at 250 g/ha [15, 21]: 85%
pest or weed control at 16 g/ha [15, 22]: 60%
pest or weed control at 31 g/ha [16, 18]: 40%
pest or weed control at 62 g/ha [16, 19]: 60%
pest or weed control at 125 g/ha [16, 20]: 60%
pest or weed control at 250 g/ha [16, 21]: 70%
pest or weed control at 16 g/ha [16, 22]: 30%

Fc1cccc(Oc2ncc(Cl)cn2)c1-n1cc(C(F)F)nn1 [Compound 141, 5-chloro-2-[2-[4-(difluoromethyl)-1H-1,2,3-triazol-1-yl]-3-fluorophenoxy]pyrimidine]
Plant response rating, Barnyardgrass ([11]; 31 g ai/ha): 0
Plant response rating, Barnyardgrass ([11]; 62 g ai/ha): 0
Plant response rating, Barnyardgrass ([11]; 125 g ai/ha): 15
Plant response rating, Barnyardgrass ([11]; 250 g ai/ha): 20

FC(F)c1cnn(-c2c(Cl)cccc2Oc2ncc(Cl)cn2)c1 [Compound 192]
Plant response rating, Barnyardgrass ([11]; 31 g ai/ha): 0
Plant response rating, Barnyardgrass ([11]; 62 g ai/ha): 0
Plant response rating, Barnyardgrass ([11]; 125 g ai/ha): 0
Plant response rating, Barnyardgrass ([11]; 250 g ai/ha): 0

Fc1cccc(Oc2ncc(Cl)cn2)c1-n1cc(Cl)cn1 [Compound 177]
Plant response rating, Barnyardgrass ([11]; 31 g ai/ha): 0
Plant response rating, Barnyardgrass ([11]; 62 g ai/ha): 0
Plant response rating, Barnyardgrass ([11]; 125 g ai/ha): 0
Plant response rating, Barnyardgrass ([11]; 250 g ai/ha): 0

N#Cc1cccc(Oc2ncc(Cl)cn2)c1-n1cc(OC(F)F)cn1 [Compound 97]
Plant response rating, Barnyardgrass ([11]; 31 g ai/ha): 0
Plant response rating, Barnyardgrass ([11]; 62 g ai/ha): 0
Plant response rating, Barnyardgrass ([11]; 125 g ai/ha): 0
Plant response rating, Barnyardgrass ([11]; 250 g ai/ha): 0
